Assay results as given in US20150089682A1, “ALS Inhibitor Herbicide Tolerant B. Napus Mutants” (priority 2012, published 2015).

Experiments:
[1] = system: spring oilseed rape homozygous for HETO108 and HETO121; experiment: Herbicide tolerance in the field, visible phytotoxicity; assay type: in vivo, Brassica napus; details: HETO108-HETO121, field, 18 days after application, 0%=no phytotoxic effects, 100%=all plants killed
Text: (§1) Seeds of spring oilseed rape homozygous for HETO108 and HETO121 were sown in a field according to typical practical agricultural methods. The registered spring oilseed rape variety ABILITY served as a comparison. All plants were cultivated up to BBCH stage 14 (four true leaves of the oilseed rape plants). Afterwards, the herbicides mentioned in table 2 have been applied to the oilseed rape plants by using specific spray equipment for small plot applications. The water amount used was 200 L/ha.

[2] = system: spring oilseed rape variety ABILITY; experiment: as above; assay type: in vivo, Brassica napus; details: ABILITY, field, 18 days after application, 0%=no phytotoxic effects, 100%=all plants killed
Text: as §1

[3] = system: ALS enzyme in leaves of wild-type Brassica lines; experiment: ALS enzyme activity in leaves; assay type: biochemical, Brassica napus; details: wild-type leaves (row IV) compared with mutant lines (rows I-III), FIG. 3
Procedure: (§2) The inhibitory effect of ALS inhibiting herbicides on ALS enzymes encoded by the different mutant AHAS alleles was tested in leaf material essentially as described by Shimizu et al, 2008, Plant Physiol. 147:1976.

[4] = system: ALS enzymes in leaves of Brassica lines homozygous for HETO108, HETO121 or both; experiment: ALS enzyme activity in leaves; assay type: biochemical, Brassica napus; details: FIG. 3
Procedure: as §2

[5] = biological target: T1, mixture of P197S and W574L ALS enzymes (Arabidopsis thaliana, UniProt P17597); assay type: biochemical; details: for Resistance Factor P197S & W574L: relative to WT, calculated
T1 construct: crude E. coli extract was used
Procedure: (§3) Assays were initiated by adding enzyme and terminated after 75 min incubation at 30° C. by the addition to 40 μl 0.5 M H2SO4. […] Reaction velocities were tiffed to the Michalis-Menten equation with the XLFit curve fitting program.
(§4) To characterize the response of a mixture of two different ALS enzymes to a given ALS inhibitor the following assumptions were made: • a inhibition is competitive and reversible • b. in the absence of inhibitor, equal activities of the ALS (mutant) enzymes 1 and 2 are present
(§5) Using experimentally determined pI50-values for various ALS-inhibiting herbicides, enzyme activities at different inhibitor concentrations were calculated (see Theory) for each ALS enzyme. Total ALS activity at any given inhibitor concentration is the sum of the activity of (mutant) enzyme 1 and (mutant) enzyme 2. If the experimentally determined pI50-value was <4, pI50=3.0 was used for the calculations. If the calculated pI50-value was 3.0, the pI50 was redefined as <4.

[6] = biological target: T2, mixture of S653N and W574L ALS enzymes (Arabidopsis thaliana, UniProt P17597); assay type: biochemical; details: for Resistance Factor S653N & W574L: relative to WT, calculated
T2 construct: crude E. coli extract was used
Procedure: as §3, §4, §5

[7] = biological target: T3, Arabidopsis thaliana W574L-mutant ALS (Arabidopsis thaliana, UniProt P17597, E575Q/W574L); experiment: biochemical; details: for Resistance Factor W574L: relative to WT, from measured pI50
T3 construct: vector-encoded N-terminal fusion of pET-32a(+) (Trx/His/S tag by own knowledge); made in house; host or cells: Escherichia coli AD494
Procedure: (§6) Bacteria were grown at 37° C. in LB-medium containing 100 mg/1 carbenicillin and 25 mg/1 canamycin, induced with 1 mM isopropyl-β-D-thiogalactopyranoside at an OD600 of 0.6, cultivated for 16 hours at 18° C. and harvested by centrifugation. Bacterial pellets were resusupended in 100 mM sodium phosphate buffer pH 7.0 containing 0.1 mM thiamine-pyrophosphate, 1 mM MgCl2, and 1 μM FAD at a concentration of 1 gram wet weight per 25 ml of buffer and disrupted by sonification. The crude protein extract obtained after centrifugation was used for ALS activity measurements.
as §3

[8] = biological target: T4, Arabidopsis thaliana wild-type ALS (Arabidopsis thaliana, UniProt P17597, E575Q); experiment: biochemical; details: measured; crude extract of E. coli expressed enzyme; read-out: pI50 WT (converted)
T4 construct: vector-encoded N-terminal fusion of pET-32a(+) (Trx/His/S tag by own knowledge); made in house; host or cells: Escherichia coli AD494
Procedure: as §6, §3

[9] = biological target: T5, Arabidopsis thaliana S653N-mutant ALS (Arabidopsis thaliana, UniProt P17597, E575Q/S653N); experiment: biochemical
T5 construct: vector-encoded N-terminal fusion of pET-32a(+) (Trx/His/S tag by own knowledge); made in house; host or cells: Escherichia coli AD494
Procedure: as §6, §3

[10] = biological target: T6, Arabidopsis thaliana P197S-mutant ALS (Arabidopsis thaliana, UniProt P17597, E575Q/P197S); experiment: biochemical; details: for Resistance Factor P197S: relative to WT, from measured pI50
T6 construct: vector-encoded N-terminal fusion of pET-32a(+) (Trx/His/S tag by own knowledge); made in house; host or cells: Escherichia coli AD494
Procedure: as §6, §3

[11] = Brassica napus, topical, 432 h, AI dose rate 50 gai/ha, read-out: % phytotox
[12] = calculated for a mixture of equal activities of the two enzymes, pI50=3.0 used where measured <4

Compound | pest or weed control at 50 g/ha [1, 11] | pest or weed control at 50 g/ha [2, 11] | inhibition of ALS enzyme activity in leaves [3] | tolerance of ALS activity in leaves by mutation ([4]; P197S (row II) compared with W574L (row III) and both (row I)) | pI50 P197S & W574L [5, 12] | Resistance Factor P197S & W574L [5] | pI50 S653N & W574L [6, 12] | Resistance Factor S653N & W574L [6] | IC50 ([7]; measured, crude extract of E. coli expressed enzyme, read-out: pI50 W574L (converted)) | Resistance Factor W574L [7] | IC50 [8] | IC50 ([9]; measured, crude extract of E. coli expressed enzyme, read-out: pI50 S653N (converted)) | Resistance Factor S653N ([9]; relative to WT, from measured pI50) | IC50 ([10]; measured, crude extract of E. coli expressed enzyme, read-out: pI50 P197S (converted)) | Resistance Factor P197S [10] | % phytotox ([1]; AI dose rate 30 gai/ha) | % phytotox ([2]; AI dose rate 30 gai/ha) | herbicide tolerance of ALS activity in leaves, TCM compared with FS ([4]; mutant lines (rows I-III))
COc1cc(OC)nc(NC(=O)NS(=O)(=O)c2cc(NC=O)ccc2C(=O)N(C)C)n1 [Foramsulfuron, foramsulfuron] | 28% | 99% | inhibited at lower concentrations of the herbicides than in leaves comprising the mutant AHAS alleles | the tolerance in lines with the P197S mutation (row II) is lower than the tolerance in lines with the W574L mutation (row III) and with both the P197S and W574L mutation (row I) | 5.6 | 398 | 5.7 | 316 | 50100 nM | 7943 | 6.31 nM | 63.1 nM | 10 | 100 nM | 16 | – | – | –
COC(=O)c1csc(C)c1S(=O)(=O)NC(=O)n1nc(OC)n(C)c1=O [Thiencarbazone-methyl, thiencarbazone-methyl] | – | – | inhibited at lower concentrations of the herbicides than in leaves comprising the mutant AHAS alleles | – | – | 1259 | – | 316 | – | 1259 | – | – | – | – | 1259 | 3% | 100% | the herbicide tolerance is higher for TCM than for FS
